Laboratory results from paper PMC3914206.

Experiments:
Assay type in all cases: binding
Conditions in all cases: Compound Concentration 10 µM
panel of 442 kinases [1] = target: T1, panel of 442 kinases (Homo sapiens, UniProt Q9Y2K2)
T1 construct: purchased KINOMEscan
Excerpt: (§1) We assessed the selectivity of members of this scaffold using the KINOMEscan methodology across a near comprehensive panel of 442 kinases [[18,27]].

panel of 442 kinases [2] = target: T2, panel of 442 kinases (Homo sapiens, UniProt Q16832)
T2 construct: purchased KINOMEscan
T2 sequence (Q16832 22-855): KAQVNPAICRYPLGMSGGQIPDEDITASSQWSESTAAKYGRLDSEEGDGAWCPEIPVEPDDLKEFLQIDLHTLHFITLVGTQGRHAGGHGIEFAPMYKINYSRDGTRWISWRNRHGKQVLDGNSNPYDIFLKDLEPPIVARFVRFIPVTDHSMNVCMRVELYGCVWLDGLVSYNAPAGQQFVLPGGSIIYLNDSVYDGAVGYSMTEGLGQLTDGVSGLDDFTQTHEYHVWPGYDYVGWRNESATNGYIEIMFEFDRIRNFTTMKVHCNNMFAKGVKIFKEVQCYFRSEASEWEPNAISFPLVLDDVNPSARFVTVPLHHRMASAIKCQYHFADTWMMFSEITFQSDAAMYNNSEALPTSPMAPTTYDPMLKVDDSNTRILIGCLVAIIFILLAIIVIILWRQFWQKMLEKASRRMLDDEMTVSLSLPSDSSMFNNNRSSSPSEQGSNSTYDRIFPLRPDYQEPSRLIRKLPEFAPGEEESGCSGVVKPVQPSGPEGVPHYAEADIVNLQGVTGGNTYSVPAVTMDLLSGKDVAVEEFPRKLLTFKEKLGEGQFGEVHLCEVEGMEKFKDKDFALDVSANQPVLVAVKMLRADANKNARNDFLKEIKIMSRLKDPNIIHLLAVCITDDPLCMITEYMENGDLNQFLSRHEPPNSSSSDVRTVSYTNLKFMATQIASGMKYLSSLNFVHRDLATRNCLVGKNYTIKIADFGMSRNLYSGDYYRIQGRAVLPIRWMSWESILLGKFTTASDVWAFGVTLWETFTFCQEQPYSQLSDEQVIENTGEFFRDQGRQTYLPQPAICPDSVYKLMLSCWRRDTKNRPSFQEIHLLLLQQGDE
Excerpt: as §1

panel of 442 kinases [3] = target: T3, panel of 442 kinases (Homo sapiens, UniProt Q04759)
T3 construct: purchased KINOMEscan
Excerpt: as §1

T3 sequence (Q04759 whole entry): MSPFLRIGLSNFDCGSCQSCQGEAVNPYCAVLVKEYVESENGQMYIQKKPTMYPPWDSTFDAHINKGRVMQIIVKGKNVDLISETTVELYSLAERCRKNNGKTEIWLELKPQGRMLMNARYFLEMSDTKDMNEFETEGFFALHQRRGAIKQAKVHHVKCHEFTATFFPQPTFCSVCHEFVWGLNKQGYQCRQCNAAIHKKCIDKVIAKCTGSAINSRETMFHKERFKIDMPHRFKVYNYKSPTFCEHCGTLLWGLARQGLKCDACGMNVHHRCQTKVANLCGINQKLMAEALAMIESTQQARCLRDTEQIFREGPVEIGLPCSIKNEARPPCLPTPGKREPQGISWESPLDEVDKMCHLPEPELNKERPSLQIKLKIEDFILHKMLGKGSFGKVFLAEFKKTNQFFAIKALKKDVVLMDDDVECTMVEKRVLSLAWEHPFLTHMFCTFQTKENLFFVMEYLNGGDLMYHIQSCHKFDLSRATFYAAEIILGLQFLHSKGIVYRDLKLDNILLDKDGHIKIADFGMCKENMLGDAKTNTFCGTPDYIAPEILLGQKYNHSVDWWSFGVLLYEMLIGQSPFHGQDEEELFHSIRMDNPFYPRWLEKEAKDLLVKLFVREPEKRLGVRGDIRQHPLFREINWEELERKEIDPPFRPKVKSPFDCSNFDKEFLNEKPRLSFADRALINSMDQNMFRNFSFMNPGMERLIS
T1 sequence (Q9Y2K2 whole entry): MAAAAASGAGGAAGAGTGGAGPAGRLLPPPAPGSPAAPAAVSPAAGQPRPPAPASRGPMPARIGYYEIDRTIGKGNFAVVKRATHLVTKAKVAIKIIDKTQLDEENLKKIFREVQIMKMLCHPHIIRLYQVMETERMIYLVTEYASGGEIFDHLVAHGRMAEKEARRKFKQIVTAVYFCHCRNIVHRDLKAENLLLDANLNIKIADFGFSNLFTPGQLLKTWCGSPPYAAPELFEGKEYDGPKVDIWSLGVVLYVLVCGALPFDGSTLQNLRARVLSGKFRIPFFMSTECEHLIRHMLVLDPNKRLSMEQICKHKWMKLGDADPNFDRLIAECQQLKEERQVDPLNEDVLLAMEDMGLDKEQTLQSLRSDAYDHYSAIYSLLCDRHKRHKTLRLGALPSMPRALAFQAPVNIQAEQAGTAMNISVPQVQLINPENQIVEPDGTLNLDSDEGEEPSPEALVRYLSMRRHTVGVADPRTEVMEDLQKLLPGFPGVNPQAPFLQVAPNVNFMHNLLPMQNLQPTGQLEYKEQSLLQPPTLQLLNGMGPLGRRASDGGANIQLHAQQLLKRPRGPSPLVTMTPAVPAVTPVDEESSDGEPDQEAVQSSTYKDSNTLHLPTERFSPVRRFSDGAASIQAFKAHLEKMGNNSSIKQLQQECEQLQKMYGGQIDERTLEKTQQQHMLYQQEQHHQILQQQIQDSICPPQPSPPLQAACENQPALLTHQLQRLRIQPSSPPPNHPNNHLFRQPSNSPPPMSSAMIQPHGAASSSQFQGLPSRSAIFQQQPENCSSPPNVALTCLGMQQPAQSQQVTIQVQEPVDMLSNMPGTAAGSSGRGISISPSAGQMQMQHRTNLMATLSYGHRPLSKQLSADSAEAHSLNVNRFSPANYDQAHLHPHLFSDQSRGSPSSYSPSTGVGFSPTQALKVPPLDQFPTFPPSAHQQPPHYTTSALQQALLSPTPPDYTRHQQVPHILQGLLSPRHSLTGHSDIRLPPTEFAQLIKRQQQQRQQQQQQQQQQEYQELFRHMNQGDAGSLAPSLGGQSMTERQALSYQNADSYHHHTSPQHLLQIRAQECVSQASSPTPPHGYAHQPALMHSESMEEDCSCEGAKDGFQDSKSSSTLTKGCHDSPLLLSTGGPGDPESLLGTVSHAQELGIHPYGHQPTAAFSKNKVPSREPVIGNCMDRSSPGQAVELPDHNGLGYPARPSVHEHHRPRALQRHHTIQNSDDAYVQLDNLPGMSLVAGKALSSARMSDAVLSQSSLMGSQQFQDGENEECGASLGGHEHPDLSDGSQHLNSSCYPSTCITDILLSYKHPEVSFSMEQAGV

| Structure (SMILES) | KINOMEscan: QSK (panel of 442 kinases [1]) | KINOMEscan: DDR2 (panel of 442 kinases [2]) | KINOMEscan: PRKCQ (panel of 442 kinases [3]) |
| --- | --- | --- | --- |
| CCOc1cc(C(=O)N2CCC(N3CCN(C)CC3)CC2)ccc1Nc1ncc2c(n1)N(C1CCCC1)c1ccccc1C(=O)N2C [Compound 26] | 100 | 81 | 100 |
| COc1cc(C(=O)N2CCC(N3CCN(C)CC3)CC2)ccc1Nc1ncc2c(n1)N(C)c1ccccc1C(=O)N2C [15 (LRRK2-IN-1)] | 100 | 100 | 100 |
| COc1cc(C(=O)N2CCC(N3CCN(C)CC3)CC2)ccc1Nc1ncc2c(n1)N(C1CCCC1)c1ccccc1C(=O)N2C [Compound 25, 11-cyclopentyl-2-((2-methoxy-4-(4-(4-methylpiperazin-1-yl)piperidine-1-carbonyl)phenyl)amino)-5-methyl-5H-benzo[e]pyrimido[5,4-b][1,4]diazepin-6(11H)-one] | 100 | 96 | 100 |
